Reference: patent US20060194293A1, “Rb1 gene induced protein (rb1cc1) and gene” (Tokuhiro CHANO, priority 2003, published 2006)
“Also recorded” adds a separate entry of the source.

Key:
Assay type in all cases: cell-based, human
U-2 OS cells = test: Cell proliferation under doxorubicin treatment, parental cells; details: parental U-2 OS cells
Method: (§1) The effect on cell proliferation in the presence of 450 ng/mL of the anticancer agent doxorubicin was examined.

U-2/Neo8 cells = test: Cell proliferation under doxorubicin treatment, control gene-introduced cells; details: U-2/Neo8 control cells
Method: as §1

U-2 OS/DX580 cells = test: Cell proliferation under doxorubicin treatment, MDR variant cells; details: U-2 OS/DX580 MDR variants, 450 ng/mL doxorubicin
Method: as §1

U-2/DOXO 35 cells = test: Cell proliferation under doxorubicin treatment, MDR1 gene-introduced cells; details: U-2/DOXO 35 (MDR1 gene introduced), 450 ng/mL doxorubicin
Method: as §1

RB1CC1 gene [1] = test: Northern blot of RB1CC1 gene expression after doxorubicin, parental U-2 OS cells; details: doxorubicin treatment, over time
Method: (§2) Expression levels of RB1CC1 gene and MDR1 gene in parental U2 OS cells and several kinds of MDR-variant cells were analyzed by Northern blotting. A probe hybridizing between nucleotide numbers 4190 and 4654 of the RB1CC1 gene sequence was used as a probe for analysis of RB1CC1 gene, and a probe hybridizing between nucleotide numbers 834 and 1119 of MDR1 gene was used for MDR1 gene. Probes were used after labeling with α-32P-dCTP in which phosphorus at an alpha position of […] was substituted with a radioactive isotope. Glyceraldehyde-3-phosphate dehydrogenase (GAPDH) was used as the indicator of mRNA expression.
(§3) mRNA expression levels of cells that were obtained over time in the above-mentioned experiment were analyzed. Analysis was conducted for the novel gene RB1CC1 gene of the present invention, the RB1 gene and the MDR1 gene, respectively, in the same manner as Example 3 with the exception that expression levels of the RB1 gene were detected using a probe hybridizing to the site at nucleotides 336 to 675 of the nucleotide sequence of human RB1 mRNA. […] In contrast, in MDR variants of U-2 OS cells (U-2 OS/DX580) and U-2 OS cells introduced with MDR1 gene (U-2/DOXO 35), expression level of RB1CC1 gene was not inhibited by treatment with doxorubicin, and expression of RB1CC1 gene increased. […]

RB1CC1 gene [2] = test: Northern blot of RB1CC1 gene expression after doxorubicin, U-2/Neo8 cells; details: U-2/Neo8 control cells, doxorubicin treatment, over time
Method: as §2, §3

RB1CC1 gene [3] = test: Northern blot of RB1CC1 gene expression after doxorubicin, U-2 OS/DX580 cells; details: U-2 OS/DX580 MDR variants, doxorubicin treatment
Method: as §2, §3

RB1CC1 gene [4] = test: Northern blot of RB1CC1 gene expression after doxorubicin, U-2/DOXO 35 cells; details: U-2/DOXO 35 (MDR1 gene introduced), doxorubicin treatment
Method: as §2, §3

Structure (SMILES): COc1cccc2c1C(=O)c1c(O)c3c(c(O)c1C2=O)C[C@@](O)(C(=O)CO)C[C@@H]3O[C@H]1C[C@H](N)[C@H](O)[C@H](C)O1 [doxorubicin]
- effect on cell proliferation (U-2 OS cells; 450 ng/mL doxorubicin): suppressed
- cell death (U-2 OS cells; doxorubicin treatment): induced cell death
- effect on cell proliferation (U-2/Neo8 cells; 450 ng/mL doxorubicin): suppressed
- cell death (U-2/Neo8 cells; doxorubicin treatment): induced cell death
- effect on cell proliferation (U-2 OS/DX580 cells): did not exhibit an inhibitory effect; also recorded: had no effect
- effect on cell proliferation (U-2/DOXO 35 cells): had no effect
- expression of the RB1CC1 gene (mRNA) (RB1CC1 gene [1]): lowered expression; also recorded: decreased over time
- expression of the RB1CC1 gene (mRNA) (RB1CC1 gene [2]): lowered expression; also recorded: decreased over time
- expression of the RB1CC1 gene (mRNA) (RB1CC1 gene [3]): did not exhibit an inhibitory effect; also recorded: not inhibited
- expression of the RB1CC1 gene (mRNA) (RB1CC1 gene [4]): increased; also recorded: not inhibited
